Data: patent US20070128217A1 (priority 2003, published 2007)

Assays:
[1] = tested on: rabbit serum obtained by immunizing a rabbit with the SARS-CoV strain Frankfurt 1; assay type: binding; design: Binding of a rabbit serum to linear peptides / Binding of a rabbit serum to looped peptides / Rabbit serum linear peptides / Rabbit serum looped peptides / Binding of a rabbit serum to linear peptides of protein N of SARS-CoV Urbani (Rabbit serum linear peptides) / Binding of a rabbit serum to looped/cyclic peptides of protein N of SARS-CoV Urbani (Rabbit serum looped peptides): unit not given here
[2] = tested on: control sera (pooled serum of ten healthy LUMC hospital workers; commercial negative donor pooled serum from the Dutch bloodbank); assay type: binding, human; design: Binding of Control serum LUMC to linear peptides / Binding of Control serum Blood-bank to linear peptides / Binding of Control serum LUMC to looped peptides / Binding of Control Serum Blood-Bank to Looped peptides / Binding of Control serum LUMC to linear peptides of the protein M of SARS-CoV Urbani / Binding of Control serum Blood-bank to linear peptides of the protein M of SARS-CoV Urbani / Binding of Control serum LUMC to looped peptides of the protein M of SARS-CoV Urbani / Binding of Control Serum Blood-Bank to Looped peptides of the protein M of SARS-CoV Urbani: unit not given here
[3] = tested on: antibodies in sera from SARS patients (sera 1a, 1b, 2, 6, 37, 62, London, SARS-yellow, SARS-green); assay type: binding, human; design: Binding of serum 6 to linear peptides of protein X1 of SARS-CoV Urbani / Binding of serum 37 to linear peptides of protein X1 of SARS-CoV Urbani / Binding of serum 6 to looped/cyclic peptide (PEPSCAN-ELISA) / Binding of serum 37 to looped/cyclic peptide (PEPSCAN-ELISA) / Binding of serum 37 to looped/cyclic peptides of protein X1 of SARS-CoV Urbani / Binding of serum 6 to linear peptides of protein X2 / Binding of serum 37 to linear peptides of protein X2 / Binding of serum 37 to looped/cyclic peptides of protein X2 of SARS-CoV Urbani / Binding of serum 6 to linear peptides of protein M of SARS-CoV Urbani / Binding of serum 37 to linear peptides of protein M of SARS-CoV Urbani / Binding of serum 6 to looped/cyclic peptides of protein M of SARS-CoV Urbani / Binding of serum 37 to looped/cyclic peptides of protein M of SARS-CoV Urbani / Binding of serum 6 to linear peptides of protein X3 of SARS-CoV Urbani / Binding of serum 37 to linear peptides of protein X3 of SARS-CoV Urbani / Binding of serum 37 to looped/cyclic peptides of protein X3 of SARS-CoV Urbani / Binding of serum 6 to linear peptides of protein X4 of SARS-CoV Urbani / Binding of serum 37 to linear peptides of protein X4 of SARS-CoV Urbani / Binding of serum 37 to looped/cyclic peptides of protein X4 of SARS-CoV Urbani / Binding of serum 6 to linear peptides of protein X5 of SARS-CoV Urbani / Binding of serum 37 to linear peptides of protein X5 of SARS-CoV Urbani / Binding of serum 37 to looped/cyclic peptides of protein X5 of SARS-CoV Urbani / Binding of serum 6 to linear peptides of protein N of SARS-CoV Urbani / Binding of serum 37 to linear peptides of protein N of SARS-CoV Urbani / Binding of serum 6 to linear peptide (PEPSCAN-ELISA) / Binding of serum 1a to looped/cyclic peptides of protein N of SARS-CoV Urbani / Binding of serum 1b to looped/cyclic peptides of protein N of SARS-CoV Urbani / Binding of serum 2 to looped/cyclic peptides of protein N of SARS-CoV Urbani / Binding of serum 6 to looped/cyclic peptides of protein N of SARS-CoV Urbani / Binding of serum 37 to looped/cyclic peptides of protein N of SARS-CoV Urbani / Binding of serum 62 to looped/cyclic peptides of protein N of SARS-CoV Urbani / Binding of serum London to looped/cyclic peptides of protein N of SARS-CoV Urbani / Binding of serum SARS-green to looped/cyclic peptides of protein N of SARS-CoV Urbani: unit not given here

PVTLACFVLAAVYRI
Rabbit serum linear peptides [1]: 0.4 | Rabbit serum looped peptides [1]: 0.3 | Binding of Control Serum Blood-Bank to Looped peptides of the protein M of SARS-CoV Urbani [2]: 0.6 | Binding of Control serum Blood-bank to linear peptides of the protein M of SARS-CoV Urbani [2]: 0.5 | Binding of Control serum LUMC to linear peptides of the protein M of SARS-CoV Urbani [2]: 0.2 | Binding of Control serum LUMC to looped peptides of the protein M of SARS-CoV Urbani [2]: 0.7 | Binding of serum 1a to linear peptides of protein M of SARS-CoV Urbani [3]: 0.7 | Binding of serum 1a to looped/cyclic peptides of protein M of SARS-CoV Urbani [3]: 0.7 | Binding of serum 1b to linear peptides of protein M of SARS-CoV Urbani [3]: 0.5 | Binding of serum 1b to looped/cyclic peptides of protein M of SARS-CoV Urbani [3]: 0.6 | Binding of serum 2 to linear peptides of protein M of SARS-CoV Urbani [3]: 0.5 | Binding of serum 2 to looped/cyclic peptides of protein M of SARS-CoV Urbani [3]: 0.6 | Binding of serum 6 to linear peptides of protein M of SARS-CoV Urbani [3]: 0.3 | Binding of serum 6 to looped/cyclic peptides of protein M of SARS-CoV Urbani [3]: 0.7 | Binding of serum 37 to linear peptides of protein M of SARS-CoV Urbani [3]: 0.6 | Binding of serum 37 to looped/cyclic peptides of protein M of SARS-CoV Urbani [3]: 0.7 | Binding of serum 62 to linear peptides of protein M of SARS-CoV Urbani [3]: 0.7 | Binding of serum 62 to looped/cyclic peptides of protein M of SARS-CoV Urbani [3]: 0.7 | Binding of serum London to linear peptides of protein M of SARS-CoV Urbani [3]: 0.3 | Binding of serum London to looped/cyclic peptides of protein M of SARS-CoV Urbani [3]: 0.2 | Binding of serum SARS-green to linear peptides of protein M of SARS-CoV Urbani [3]: 0.2 | Binding of serum SARS-green to looped/cyclic peptides of protein M of SARS-CoV Urbani [3]: 0.2 | Binding of serum SARS-yellow to linear peptides of protein M of SARS-CoV Urbani [3]: 0.0 | Binding of serum SARS-yellow to looped/cyclic peptides of protein M of SARS-CoV Urbani [3]: 0.6

QCINACRIIMRCWLC
Recognition of the peptide by the rabbit serum [1]: recognized | Binding of Control Serum Blood-Bank to Looped peptides [2]: 0.6 | Binding of Control serum Blood-bank to linear peptides [2]: 0.9 | Binding of Control serum LUMC to linear peptides [2]: 0.7 | Binding of Control serum LUMC to looped peptides [2]: 0.7 | Binding of serum 1a to linear peptides of protein X1 of SARS-CoV Urbani [3]: 0.8 | Binding of serum 1a to looped/cyclic peptide (PEPSCAN-ELISA) [3]: 0.6 | Binding of serum 1b to linear peptides of protein X1 of SARS-CoV Urbani [3]: 0.6 | Binding of serum 1b to looped/cyclic peptide (PEPSCAN-ELISA) [3]: 0.4 | Binding of serum 2 to linear peptides of protein X1 of SARS-CoV Urbani [3]: 0.5 | Binding of serum 2 to looped/cyclic peptide (PEPSCAN-ELISA) [3]: 0.6 | Binding of serum 6 to linear peptides of protein X1 of SARS-CoV Urbani [3]: 0.8 | Binding of serum 6 to looped/cyclic peptide (PEPSCAN-ELISA) [3]: 0.8 | Binding of serum 37 to linear peptides of protein X1 of SARS-CoV Urbani [3]: 0.7 | Binding of serum 37 to looped/cyclic peptide (PEPSCAN-ELISA) [3]: 0.6 | Binding of serum 62 to linear peptides of protein X1 of SARS-CoV Urbani [3]: 0.7 | Binding of serum 62 to looped/cyclic peptide (PEPSCAN-ELISA) [3]: 0.7 | Binding of serum London to linear peptides of protein X1 of SARS-CoV Urbani [3]: 0.4 | Binding of serum London to looped/cyclic peptide (PEPSCAN-ELISA) [3]: 1.4 | Binding of serum SARS-green to linear peptides of protein X1 of SARS-CoV Urbani [3]: 0.2 | Binding of serum SARS-green to looped/cyclic peptide (PEPSCAN-ELISA) [3]: 0.2 | Binding of serum SARS-yellow to linear peptides of protein X1 of SARS-CoV Urbani [3]: 0.3 | Binding of serum SARS-yellow to looped/cyclic peptide (PEPSCAN-ELISA) [3]: 0.4

QFICNLLLLFVTIYS
Binding of a rabbit serum to linear peptides [1]: 0.3 | Binding of a rabbit serum to looped peptides [1]: 0.5 | Binding of Control Serum Blood-Bank to Looped peptides [2]: 0.5 | Binding of Control serum Blood-bank to linear peptides [2]: 0.6 | Binding of Control serum LUMC to linear peptides [2]: 0.6 | Binding of Control serum LUMC to looped peptides [2]: 0.5 | Binding of serum 1a to linear peptides of protein X1 of SARS-CoV Urbani [3]: 0.6 | Binding of serum 1a to looped/cyclic peptide (PEPSCAN-ELISA) [3]: 0.5 | Binding of serum 1b to linear peptides of protein X1 of SARS-CoV Urbani [3]: 0.5 | Binding of serum 1b to looped/cyclic peptide (PEPSCAN-ELISA) [3]: 0.4 | Binding of serum 2 to linear peptides of protein X1 of SARS-CoV Urbani [3]: 0.6 | Binding of serum 2 to looped/cyclic peptide (PEPSCAN-ELISA) [3]: 0.6 | Binding of serum 6 to linear peptides of protein X1 of SARS-CoV Urbani [3]: 0.4 | Binding of serum 6 to looped/cyclic peptide (PEPSCAN-ELISA) [3]: 0.3 | Binding of serum 37 to linear peptides of protein X1 of SARS-CoV Urbani [3]: 0.5 | Binding of serum 37 to looped/cyclic peptide (PEPSCAN-ELISA) [3]: 0.5 | Binding of serum 62 to linear peptides of protein X1 of SARS-CoV Urbani [3]: 0.6 | Binding of serum 62 to looped/cyclic peptide (PEPSCAN-ELISA) [3]: 0.5 | Binding of serum London to linear peptides of protein X1 of SARS-CoV Urbani [3]: 0.2 | Binding of serum London to looped/cyclic peptide (PEPSCAN-ELISA) [3]: 0.2 | Binding of serum SARS-green to linear peptides of protein X1 of SARS-CoV Urbani [3]: 0.0 | Binding of serum SARS-green to looped/cyclic peptide (PEPSCAN-ELISA) [3]: 0.2 | Binding of serum SARS-yellow to linear peptides of protein X1 of SARS-CoV Urbani [3]: 0.4 | Binding of serum SARS-yellow to looped/cyclic peptide (PEPSCAN-ELISA) [3]: 0.5

QFLYLYALIYFLQCI
Binding of a rabbit serum to linear peptides [1]: 0.1 | Binding of a rabbit serum to looped peptides [1]: 0.4 | Binding of Control Serum Blood-Bank to Looped peptides [2]: 0.5 | Binding of Control serum Blood-bank to linear peptides [2]: 0.5 | Binding of Control serum LUMC to linear peptides [2]: 0.4 | Binding of Control serum LUMC to looped peptides [2]: 0.6 | Binding of serum 1a to linear peptides of protein X1 of SARS-CoV Urbani [3]: 0.7 | Binding of serum 1a to looped/cyclic peptide (PEPSCAN-ELISA) [3]: 0.5 | Binding of serum 1b to linear peptides of protein X1 of SARS-CoV Urbani [3]: 0.5 | Binding of serum 1b to looped/cyclic peptide (PEPSCAN-ELISA) [3]: 0.3 | Binding of serum 2 to linear peptides of protein X1 of SARS-CoV Urbani [3]: 0.5 | Binding of serum 2 to looped/cyclic peptide (PEPSCAN-ELISA) [3]: 0.3 | Binding of serum 6 to linear peptides of protein X1 of SARS-CoV Urbani [3]: 0.4 | Binding of serum 6 to looped/cyclic peptide (PEPSCAN-ELISA) [3]: 0.2 | Binding of serum 37 to linear peptides of protein X1 of SARS-CoV Urbani [3]: 0.6 | Binding of serum 37 to looped/cyclic peptide (PEPSCAN-ELISA) [3]: 0.5 | Binding of serum 62 to linear peptides of protein X1 of SARS-CoV Urbani [3]: 0.5 | Binding of serum 62 to looped/cyclic peptide (PEPSCAN-ELISA) [3]: 0.5 | Binding of serum London to linear peptides of protein X1 of SARS-CoV Urbani [3]: 0.2 | Binding of serum London to looped/cyclic peptide (PEPSCAN-ELISA) [3]: 0.2 | Binding of serum SARS-green to linear peptides of protein X1 of SARS-CoV Urbani [3]: 0.2 | Binding of serum SARS-green to looped/cyclic peptide (PEPSCAN-ELISA) [3]: 0.2 | Binding of serum SARS-yellow to linear peptides of protein X1 of SARS-CoV Urbani [3]: 0.5 | Binding of serum SARS-yellow to looped/cyclic peptide (PEPSCAN-ELISA) [3]: 0.3
